17 molecules from patent US20220389379A1, “PRIMARY BREAST EPITHELIAL CELL CULTURE MEDIUM, CULTURE METHOD AND USE THEREOF” (PRECEDO PHARMACEUTICALS CO., LTD, priority 2019, published 2022) can be followed below.

For orientation: IC50 means the concentration that gives 50% inhibition.

The test system of one assay is primary breast tumor epithelial cells isolated from breast cancer tissues (HMFL-XN1, HMFL-XN3, HMFL-XN4, HMFL-XN6, HMFL-XN8). In words: Optimization of primary breast epithelial cell culture medium: cell count after culture with medium additives.
Details: not given
More on the design: key: +: compared with the basis medium, the medium added with the additive(s) can promote the proliferation of primary breast tumor epithelial cells isolated from at least three cases of breast cancer tissues; −: the medium added with the additive(s) has the effect of inhibiting proliferation of primary breast tumor epithelial cells isolated from at least two cases of breast cancer tissues; ○: the medium added with this additive(s) has no significant effect on the proliferation of primary breast tumor epithelial cells isolated from at least three cases of breast cancer tissues. The assay is classed as cell-based, human. The method, then: Matrigel (registered trademark) (manufactured by BD Biosciences) was diluted at 1:100 in serum-free DMEM/F12 medium to prepare an extracellular matrix dilution, which was added to a 48-well culture plate with 200 μl/well to completely cover the bottom of the wells of the culture plate. The resultant was let stand for 1 hour in a 37° C. incubator. After 1 hour, the extracellular matrix dilution was removed to provide a Matrigel-coated plate.
First, a basis medium was prepared. To a commercial DMEM/F-12 medium, GlutaMAX-I (manufactured by Thermo Fisher SCIENTIFIC) was added at the specified concentration (1:100 dilution), human insulin (manufactured by Sigma) was added at a final concentration of 10 μg/ml, ROCK kinase inhibitor Y27632 (manufactured by Sigma) was added at a final concentration of 10 μM, and penicillin-streptomycin (manufactured by Thermo Fisher SCIENTIFIC) was added at a 1:100 dilution ratio, which provides the basis medium.
Next, different types of additives (as shown in Table 1) were added to the basis medium to prepare breast epithelial cell culture mediums containing different supplementary components, and the mediums with different components were added at a volume of 500 μl/well to 48-well plates which were coated with extracellular matrix gel (Matrigel). Breast tumor cells (HMFL-XN1) isolated from breast cancer tissue in step (1) of this Example were inoculated in a Matrigel-coated 48-well culture plate at a cell density of 1×10^4 cells/well, and equal numbers of freshly isolated breast tumor cells (HMFL-XN1) were cultured under different medium formulations at 37° C., under 5% CO2 concentration and 20% oxygen concentration. The medium was renewed every 4 days after the start of the culture. After 10 days of culture, cell counts were performed. As an experiment control, the basis medium without any additives was used. Breast tumor cells isolated from the remaining four breast cancer tissue samples were cultured and counted in the same manner as above.
In the case of Cholera toxin, the Degree of cell entry was “○”.

Still in this assay, the particulars now being: additive at the concentration given in Table 1 added to basis medium; cell count after 10 days of culture, compared with basis medium; five breast cancer samples.
On to `Cc1cccc(-c2nn(C(=S)Nc3ccccc3)cc2-c2ccnc3ccccc23)n1` [A8301, reference compound], for which the Degree of cell result is “+”. On the same count and under the same terms, with `Cc1ccc2c(c1)C(=O)C1(O)CCN(c3ccccc3)C1=N2` (centres unmarked) [Blebbistatin, reference compound] the entry was “−”. Still for that read-out and setting: under `CC(=O)N[C@@H](CS)C(=O)O` [N-Acetyl Cysteine, reference compound] stands “−”; under `NC(=O)c1cccnc1` [Nicotinamide, reference compound], “−”. On the same count and under the same terms, under `CCCCC[C@H](O)/C=C/[C@H]1[C@H](O)CC(=O)[C@@H]1C/C=C\CCCC(=O)O` [Prostaglandin E2, reference compound] stands “−”. Regarding `Oc1ccc(-c2nc(-c3ccncc3)c(-c3ccc(F)cc3)[nH]2)cc1` [SB202190, reference compound], the Degree of cell entry was “+”.

For the molecule `N[C@@H](Cc1cc(I)c(Oc2ccc(O)c(I)c2)c(I)c1)C(=O)O` [Triiodothyronine, reference compound], the Degree of cell result is reported as “○”. The same measure, in the same setting: with “Basic fibroblast growth factor: medium additive (R&D)” the entry was “+”; with “Epidermal growth factor: epidermal growth factor (EGF), medium additive (NSDSECPLSHDGYCLHDGVCMYIEALDKYACNCVVGYIGERCQYRDLKWWELR; UniProt P01133 971-1023, looked up)”, “+”. Consider “Hepatocyte growth factor: medium additive (Peprotech)”, for which the Degree of cell entry was “+”. Still for that read-out and setting: under “Human leukemia inhibitory factor: medium additive (Peprotech)” stands “−”. The same measure, in the same setting: with “Insulin growth factor1: medium additive (Peprotech)” the entry was “+”; with Interleukin 6: medium additive (R&D), “−”; with Neuregulin 1, “+”.

A further assay relates to breast tumor cells (HMFL-XN7). The assay can be described thus: Drug sensitivity functional test, Cell Titer-Glo cell viability. Conditions: Homo sapiens; HMFL-XN7, hormone receptor-positive, HER2 receptor-negative patient; 72 hours after administration; read-out: half-inhibition rate IC50. The class given is cell-based. The procedure: (§1) 1. Plating of primary breast tumor cells: the single cell suspension of breast tumor cells (HMFL-XN5, HMFL-XN7, HMFL-XN10, HMFL-XN12, and HMFL-XN29) obtained by the same method of the invention according to step (3) of Example 4, was inoculated at a density of 3000-5000 cells/well in a 384-well plate, and the cells were adhered overnight.
(§2) (1) The drug storage plates were prepared by gradient dilution method: 10 μL of the drug stock solutions to be tested (the concentration of the drug stock solution was determined based on 2 times of the maximum blood concentration Cmax of the drug in the human body) were respectively taken, and added to 0.5 mL EP tubes containing 20 μL of DMSO; 10 μL of solutions from the above EP tubes were pipetted into second 0.5 mL EP tubes loaded with 20 μL of DMSO, that is, diluting the drugs in a ratio of 1:3. The above method was repeated for gradually dilution and 7 concentrations required for dosing were obtained. Different concentrations of drugs were added to the 384-well drug storage plates. Equal volume of DMSO was added to each well of the solvent control group as a control. In this example, the drugs to be tested were epirubicin (manufactured by MCE), lapatinib (manufactured by MCE), docetaxel (manufactured by MCE), and tamoxifen (manufactured by MCE).
(§3) (2) Using a high-throughput automated workstation (purchased from Perkin Elmer), different concentrations of drugs and solvent controls in the 384-well drug storage plates were added to 384-well cell culture plates plated with the breast tumor cells. […]
(§4) (3) Test of cell viability: 72 hours after administration, Cell Titer-Glo assay kit (manufactured by Promega) was used to detect the chemiluminescence value of the cultured cells after drug administration. […] The prepared Cell Titer-Glo detection solution was added to each well, and a microplate reader was used to detect the chemiluminescence value after mixing.
(§5) Graphs were made by using Graphpad Prism 7.0 software and the half-inhibition rate IC50 was calculated.
Consider `CS(=O)(=O)CCNCc1ccc(-c2ccc3ncnc(Nc4ccc(OCc5cccc(F)c5)c(Cl)c4)c3c2)o1` [lapatinib], for which the IC50 was determined as 2500 nM.

In the case of `CC/C(=C(\c1ccccc1)c1ccc(OCCN(C)C)cc1)c1ccccc1` [tamoxifen], the IC50 worked out at 980 nM.

The test system of another assay is breast tumor cells (HMFL-XN12). The assay is described as above. Conditions: Homo sapiens; HMFL-XN12, HER2-positive patient; 72 hours after administration; read-out: half-inhibitory amount (IC50). The assay is classed as cell-based. The method, then:
as §1, §2, §3, §4, §5
`CS(=O)(=O)CCNCc1ccc(-c2ccc3ncnc(Nc4ccc(OCc5cccc(F)c5)c(Cl)c4)c3c2)o1` [lapatinib]: the IC50 was 920 nM.

The next assay has as its system breast tumor cells (HMFL-XN29). The description is as above. Conditions: HMFL-XN29, triple-negative patient; 72 hours after administration. The class given is cell-based, human. The method, then:
as §1
(1) The drug storage plates were prepared by gradient dilution method: 10 μL of the drug stock solutions to be tested (the concentration of the drug stock solution was determined based on 2 times of the maximum blood concentration Cmax of the drug in the human body) were respectively taken, and added to 0.5 mL EP tubes containing 20 μL of DMSO; 10 μL of solutions from the above EP tubes were pipetted into second 0.5 mL EP tubes loaded with 20 μL of DMSO, that is, diluting the drugs in a ratio of 1:3. […]
as §4, §5
Turning to `CS(=O)(=O)CCNCc1ccc(-c2ccc3ncnc(Nc4ccc(OCc5cccc(F)c5)c(Cl)c4)c3c2)o1` [lapatinib], the “drug sensitivity compared with breast tumor cells from other patients” value is listed as “less sensitive”.

On to `CC/C(=C(\c1ccccc1)c1ccc(OCCN(C)C)cc1)c1ccccc1` [tamoxifen], for which the “drug sensitivity compared with breast tumor cells from other patients” value was “less sensitive”.
